Reference: publication PMC9519446, “Discovery of an Orally Active Benzoxaborole Prodrug Effective in the Treatment of Chagas Disease in Non-human Primates” (Nature microbiology, 2022)
“And” between values parts separate entries of the source, which are not always exact repeats. Equal entries are not always repeated.

Assay: NHP health screening: serum chemistry
Type: in vivo, rhesus macaques (Macaca mulatta)
[1] = End of study bleed, Mean of treated F animals
[2] = End of study bleed, individual treated animals
[3] = Mid-dosing bleed, Mean of treated females
[4] = Mid-dosing bleed, treated animals, individual values

Description: Under light-anesthesia/sedation, peripheral blood samples were collected from each animal prior to treatment and at 7 time points following. Blood analysis (CBC and serum chemistry assays) and physical exams to evaluate the health of the study animals were performed on each animal prior to the beginning of the study and also at three time points during the treatment protocol (see Supplementary data).

Cc1c(C(=O)N[C@H](C(=O)OCC2CCOCC2)C(C)C)ccc2c1B(O)OC2 [AN15368]
Agap [1]: 15 Meq/L | Alb [1]: 3.916 G/Dl | Alp [1]: 92.2632 Iu/L | Alt [1]: 53.7368 Iu/L | Ast [1]: 63.5789 Iu/L | Bun [1]: 17.7895 Mg/Dl | Ca [1]: 9.232 Mg/Dl | Chol [1]: 138.105 mg/dL | Ck [1]: 2260.42 Iu/L | Cl [1]: 109.526 Meq/L | Crea [1]: 0.7289 Mg/Dl | Fe [1]: 111.895 µg/dL | Ggt [1]: 45 Iu/L | Glob [1]: 2.684 G/Dl | Gluc [1]: 62.2105 Mg/Dl | K [1]: 3.584 Meq/L | Ldh [1]: 581.684 Iu/L | Na [1]: 147.474 Meq/L | Osmo [1]: 284.105 Mosm/Kg | Phos [1]: 3.284 Mg/Dl | Tbil [1]: 0.2074 Mg/Dl | Tco2 [1]: 26.6842 Meq/L | Tibc [1]: 363.263 µg/dL | Tp [1]: 6.589 G/Dl | Trig [1]: 78.7895 Mg/Dl | Agap [2]: 18 Meq/L and 14 Meq/L and 15 Meq/L and 13 Meq/L and 17 Meq/L and 16 Meq/L | Alb [2]: 4.2 G/Dl and 3.6 G/Dl and 3.9 G/Dl and 3.5 G/Dl and 4 G/Dl and 3.3 G/Dl and 2.9 G/Dl and 4.4 G/Dl and 3.8 G/Dl and 4.7 G/Dl and 4.3 G/Dl | Alp [2]: 132 Iu/L and 94 Iu/L and 68 Iu/L and 54 Iu/L and 70 Iu/L and 117 Iu/L and 84 Iu/L and 65 Iu/L and 131 Iu/L and 60 Iu/L and 92 Iu/L and 150 Iu/L and 113 Iu/L and 97 Iu/L and 63 Iu/L and 80 Iu/L and 71 Iu/L and 89 Iu/L and 76 Iu/L | Alt [2]: 39 Iu/L and 36 Iu/L and 27 Iu/L and 30 Iu/L and 87 Iu/L and 53 Iu/L and 95 Iu/L and 29 Iu/L and 76 Iu/L and 195 Iu/L and 45 Iu/L and 25 Iu/L and 70 Iu/L and 69 Iu/L and 18 Iu/L and 22 Iu/L | Ast [2]: 34 Iu/L and 33 Iu/L and 18 Iu/L and 23 Iu/L and 28 Iu/L and 35 Iu/L and 32 Iu/L and 29 Iu/L and 21 Iu/L and 199 Iu/L and 392 Iu/L and 24 Iu/L and 25 Iu/L and 203 Iu/L and 16 Iu/L | Bun [2]: 19 Mg/Dl and 14 Mg/Dl and 15 Mg/Dl and 17 Mg/Dl and 18 Mg/Dl and 16 Mg/Dl and 13 Mg/Dl and 38 Mg/Dl and 29 Mg/Dl and 11 Mg/Dl | Ca [2]: 9.6 Mg/Dl and 9.1 Mg/Dl and 8.7 Mg/Dl and 9.3 Mg/Dl and 9.5 Mg/Dl and 9.2 Mg/Dl and 8.8 Mg/Dl and 8.5 Mg/Dl and 8.2 Mg/Dl and 9.7 Mg/Dl and 9.4 Mg/Dl and 10.1 Mg/Dl | Chol [2]: 127 mg/dL and 152 mg/dL and 153 mg/dL and 132 mg/dL and 115 mg/dL and 168 mg/dL and 197 mg/dL and 162 mg/dL and 129 mg/dL and 141 mg/dL and 101 mg/dL and 85 mg/dL and 158 mg/dL and 126 mg/dL and 118 mg/dL and 151 mg/dL and 136 mg/dL and 110 mg/dL | Ck [2]: 224 Iu/L and 407 Iu/L and 173 Iu/L and 274 Iu/L and 432 Iu/L and 485 Iu/L and 1737 Iu/L and 198 Iu/L and 506 Iu/L and 146 Iu/L and 14833 Iu/L and 15016 Iu/L and 403 Iu/L and 468 Iu/L and 205 Iu/L and 374 Iu/L and 6914 Iu/L and 290 Iu/L and 124 Iu/L and 171 Iu/L | Cl [2]: 111 Meq/L and 110 Meq/L and 109 Meq/L and 107 Meq/L and 104 Meq/L and 108 Meq/L and 112 Meq/L | Crea [2]: 0.7 Mg/Dl and 0.59 Mg/Dl and 0.62 Mg/Dl and 0.68 Mg/Dl and 0.76 Mg/Dl and 0.63 Mg/Dl and 0.77 Mg/Dl and 0.78 Mg/Dl and 0.71 Mg/Dl and 0.75 Mg/Dl and 1.07 Mg/Dl and 0.83 Mg/Dl and 0.58 Mg/Dl and 0.57 Mg/Dl and 0.74 Mg/Dl and 0.85 Mg/Dl and 0.66 Mg/Dl | Fe [2]: 161 µg/dL and 147 µg/dL and 112 µg/dL and 151 µg/dL and 121 µg/dL and 108 µg/dL and 127 µg/dL and 95 µg/dL and 137 µg/dL and 110 µg/dL and 23 µg/dL and 34 µg/dL and 87 µg/dL and 133 µg/dL and 143 µg/dL and 32 µg/dL and 183 µg/dL and 103 µg/dL and 93 µg/dL | Ggt [2]: 49 Iu/L and 44 Iu/L and 32 Iu/L and 38 Iu/L and 45 Iu/L and 53 Iu/L and 43 Iu/L and 48 Iu/L and 60 Iu/L and 51 Iu/L and 47 Iu/L and 30 Iu/L and 41 Iu/L and 67 Iu/L | Glob [2]: 2.4 G/Dl and 3.1 G/Dl and 2.5 G/Dl and 2.6 G/Dl and 2.8 G/Dl and 2.9 G/Dl and 2.7 G/Dl and 3.3 G/Dl and 3.2 G/Dl and 2.3 G/Dl and 2.2 G/Dl | Gluc [2]: 77 Mg/Dl and 54 Mg/Dl and 69 Mg/Dl and 48 Mg/Dl and 57 Mg/Dl and 50 Mg/Dl and 62 Mg/Dl and 56 Mg/Dl and 65 Mg/Dl and 75 Mg/Dl and 83 Mg/Dl and 64 Mg/Dl and 58 Mg/Dl and 73 Mg/Dl and 55 Mg/Dl and 63 Mg/Dl | K [2]: 3.5 Meq/L and 4 Meq/L and 3.4 Meq/L and 3.3 Meq/L and 3.6 Meq/L and 3.7 Meq/L and 3.9 Meq/L and 2.9 Meq/L and 3.8 Meq/L and 4.1 Meq/L | Ldh [2]: 508 Iu/L and 636 Iu/L and 140 Iu/L and 492 Iu/L and 348 Iu/L and 387 Iu/L and 493 Iu/L and 399 Iu/L and 281 Iu/L and 157 Iu/L and 1914 Iu/L and 2200 Iu/L and 274 Iu/L and 247 Iu/L and 194 Iu/L and 1688 Iu/L and 241 Iu/L and 292 Iu/L and 122 Iu/L | Na [2]: 148 Meq/L and 145 Meq/L and 149 Meq/L and 146 Meq/L and 147 Meq/L | Osmo [2]: 286 Mosm/Kg and 278 Mosm/Kg and 284 Mosm/Kg and 285 Mosm/Kg and 280 Mosm/Kg and 291 Mosm/Kg and 283 Mosm/Kg and 282 Mosm/Kg | Phos [2]: 3.1 Mg/Dl and 3.5 Mg/Dl and 3.7 Mg/Dl and 2.5 Mg/Dl and 4.3 Mg/Dl and 4.5 Mg/Dl and 4.2 Mg/Dl and 3 Mg/Dl and 2.4 Mg/Dl and 2.3 Mg/Dl and 3.4 Mg/Dl and 3.2 Mg/Dl and 2.7 Mg/Dl and 3.3 Mg/Dl and 4.8 Mg/Dl and 4 Mg/Dl | Tbil [2]: 0.17 Mg/Dl and 0.1 Mg/Dl and 0.12 Mg/Dl and 0.16 Mg/Dl and 0.45 Mg/Dl and 0.41 Mg/Dl and 0.15 Mg/Dl and 0.14 Mg/Dl and 0.84 Mg/Dl and 0.19 Mg/Dl | Tco2 [2]: 23 Meq/L and 25 Meq/L and 26 Meq/L and 27 Meq/L and 30 Meq/L and 31 Meq/L and 28 Meq/L and 29 Meq/L and 24 Meq/L | Tibc [2]: 337 µg/dL and 401 µg/dL and 353 µg/dL and 346 µg/dL and 309 µg/dL and 409 µg/dL and 351 µg/dL and 396 µg/dL and 388 µg/dL and 371 µg/dL and 299 µg/dL and 267 µg/dL and 357 µg/dL and 410 µg/dL and 392 µg/dL and 358 µg/dL and 376 µg/dL and 424 µg/dL and 347 µg/dL and 320 µg/dL | Tp [2]: 6.5 G/Dl and 6.7 G/Dl and 6.4 G/Dl and 6.8 G/Dl and 6.3 G/Dl and 6.9 G/Dl and 6.6 G/Dl and 6 G/Dl and 6.1 G/Dl and 6.2 G/Dl | Trig [2]: 66 Mg/Dl and 105 Mg/Dl and 88 Mg/Dl and 84 Mg/Dl and 101 Mg/Dl and 120 Mg/Dl and 124 Mg/Dl and 77 Mg/Dl and 61 Mg/Dl and 137 Mg/Dl and 20 Mg/Dl and 24 Mg/Dl and 50 Mg/Dl and 111 Mg/Dl and 31 Mg/Dl and 141 Mg/Dl and 27 Mg/Dl | Agap [3]: 15.1667 Meq/L | Alb [3]: 3.839 G/Dl | Alp [3]: 98.7222 Iu/L | Alt [3]: 44.8889 Iu/L | Ast [3]: 27.4444 Iu/L | Bun [3]: 14.2778 Mg/Dl | Ca [3]: 9.439 Mg/Dl | Chol [3]: 138.5 mg/dL | Ck [3]: 456.778 Iu/L | Cl [3]: 110.167 Meq/L | Crea [3]: 0.7289 Mg/Dl | Fe [3]: 141.278 µg/dL | Ggt [3]: 49.6667 Iu/L | Glob [3]: 3.072 G/Dl | Gluc [3]: 63.0556 Mg/Dl | K [3]: 3.633 Meq/L | Ldh [3]: 249.389 Iu/L | Na [3]: 148.5 Meq/L | Osmo [3]: 284.778 Mosm/Kg | Phos [3]: 2.8 Mg/Dl | Tbil [3]: 0.1683 Mg/Dl | Tco2 [3]: 26.8889 Meq/L | Tibc [3]: 368.167 µg/dL | Tp [3]: 6.906 G/Dl | Trig [3]: 81.6111 Mg/Dl | Agap [4]: 16 Meq/L and 17 Meq/L and 13 Meq/L and 15 Meq/L and 14 Meq/L | Alb [4]: 3.9 G/Dl and 3.6 G/Dl and 3.8 G/Dl and 3.4 G/Dl and 3.5 G/Dl and 4.3 G/Dl and 4.1 G/Dl and 3.7 G/Dl and 4 G/Dl | Alp [4]: 114 Iu/L and 109 Iu/L and 79 Iu/L and 146 Iu/L and 91 Iu/L and 93 Iu/L and 84 Iu/L and 108 Iu/L and 131 Iu/L and 72 Iu/L and 88 Iu/L and 136 Iu/L and 116 Iu/L and 65 Iu/L and 75 Iu/L and 90 Iu/L | Alt [4]: 46 Iu/L and 63 Iu/L and 42 Iu/L and 89 Iu/L and 50 Iu/L and 33 Iu/L and 67 Iu/L and 24 Iu/L and 27 Iu/L and 69 Iu/L and 29 Iu/L and 22 Iu/L and 35 Iu/L and 40 Iu/L and 55 Iu/L and 44 Iu/L and 56 Iu/L | Ast [4]: 40 Iu/L and 24 Iu/L and 28 Iu/L and 29 Iu/L and 25 Iu/L and 26 Iu/L and 33 Iu/L and 34 Iu/L and 20 Iu/L and 27 Iu/L and 15 Iu/L and 30 Iu/L and 23 Iu/L | Bun [4]: 15 Mg/Dl and 16 Mg/Dl and 13 Mg/Dl and 12 Mg/Dl and 14 Mg/Dl and 11 Mg/Dl and 20 Mg/Dl | Ca [4]: 9.7 Mg/Dl and 9.6 Mg/Dl and 9.1 Mg/Dl and 9.3 Mg/Dl and 9 Mg/Dl and 9.2 Mg/Dl and 10 Mg/Dl and 9.8 Mg/Dl and 9.5 Mg/Dl | Chol [4]: 180 mg/dL and 175 mg/dL and 134 mg/dL and 115 mg/dL and 124 mg/dL and 127 mg/dL and 158 mg/dL and 141 mg/dL and 125 mg/dL and 122 mg/dL and 138 mg/dL and 154 mg/dL and 140 mg/dL and 113 mg/dL and 133 mg/dL and 148 mg/dL and 151 mg/dL and 119 mg/dL | Ck [4]: 427 Iu/L and 338 Iu/L and 199 Iu/L and 479 Iu/L and 314 Iu/L and 233 Iu/L and 738 Iu/L and 1619 Iu/L and 353 Iu/L and 416 Iu/L and 382 Iu/L and 210 Iu/L and 648 Iu/L and 548 Iu/L and 237 Iu/L and 332 Iu/L and 197 Iu/L and 552 Iu/L and 206 Iu/L | Cl [4]: 110 Meq/L and 109 Meq/L and 111 Meq/L and 108 Meq/L and 107 Meq/L and 113 Meq/L and 112 Meq/L | Crea [4]: 0.56 Mg/Dl and 0.91 Mg/Dl and 0.71 Mg/Dl and 0.69 Mg/Dl and 0.85 Mg/Dl and 0.97 Mg/Dl and 0.62 Mg/Dl and 0.77 Mg/Dl and 0.78 Mg/Dl and 0.74 Mg/Dl and 0.76 Mg/Dl and 0.58 Mg/Dl and 0.65 Mg/Dl and 0.64 Mg/Dl and 0.68 Mg/Dl | Fe [4]: 185 µg/dL and 145 µg/dL and 129 µg/dL and 168 µg/dL and 126 µg/dL and 124 µg/dL and 150 µg/dL and 181 µg/dL and 159 µg/dL and 113 µg/dL and 170 µg/dL and 84 µg/dL and 111 µg/dL and 169 µg/dL and 125 µg/dL and 154 µg/dL and 155 µg/dL | Ggt [4]: 46 Iu/L and 64 Iu/L and 42 Iu/L and 53 Iu/L and 58 Iu/L and 67 Iu/L and 48 Iu/L and 30 Iu/L and 52 Iu/L and 31 Iu/L and 40 Iu/L and 35 Iu/L and 82 Iu/L and 37 Iu/L and 50 Iu/L and 65 Iu/L
